From US7888510B2, “2-′4(phenylamino)-piperidin-1-yl!-n-phenyl-acetamine derivatives and related compounds as neuropeptide Y5 (NPY5) ligands for the treatment of obesity” (Laboratorios del Dr. Esteve S.A., priority 2003, dated 2011)
Counter-ions that a name gives are not always drawn.

Target: T1, rat Y5 receptor (Rattus norvegicus, UniProt Q63634)
T1 construct: expressed in transfected cells; host or cells: C6 cells (membrane preparation)
T1 sequence (Q63634 1-445): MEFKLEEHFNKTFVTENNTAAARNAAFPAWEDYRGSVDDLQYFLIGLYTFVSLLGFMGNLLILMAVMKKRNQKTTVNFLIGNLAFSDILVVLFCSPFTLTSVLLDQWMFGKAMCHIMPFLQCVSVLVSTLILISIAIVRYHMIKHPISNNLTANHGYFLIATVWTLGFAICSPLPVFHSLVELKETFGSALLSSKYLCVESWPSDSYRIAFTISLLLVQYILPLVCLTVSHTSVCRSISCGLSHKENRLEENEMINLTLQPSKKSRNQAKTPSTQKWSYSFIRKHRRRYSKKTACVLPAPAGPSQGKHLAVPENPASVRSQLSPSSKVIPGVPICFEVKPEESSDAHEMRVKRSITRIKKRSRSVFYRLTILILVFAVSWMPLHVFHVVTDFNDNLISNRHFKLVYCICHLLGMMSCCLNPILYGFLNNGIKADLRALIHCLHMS
Test: Neuropeptide Y5 receptor binding ([125I]-PYY displacement, membranes of transfected C6 cells)
Settings: 10^−6 M; membranes of C6 cells transfected with the rat Y5 receptor; radioligand [125I]-PYY 100 pM
Experimental: Neuropeptide Y5 Receptor Binding Studies:
The methods used for membrane preparation and binding are similar to those described by Y. Hu, B. T. Bloomquist et al. in Y. Hu, B. T. Bloomquist et al., The Journal of Biological Chemistry, 1996, 271, 26315-26319 with modifications. Said literature description is herewith incorporated by reference and forms part of the disclosure. Cells C6 were transfected with the rat Y5 receptor. The cells were grown under standard culture conditions in 150 cm^2 dishes and they were harvested using a rubber scraper and 10 ml PBS. The cells from five dishes were collected and centrifuged 2.500 g for 5 min (4° C.). The pellet was washed by resuspending in 3 ml buffer (Tris-HCl 10 mM, pH 7.4), homogenized using a Potter S homogenizer, 10 strokes at 600 rpm and centrifuged 48.000 g for 20 min (4° C.). The pellet was resuspended in 8 ml membrane buffer (Tris-HCl 25 mM, NaCl 120 mM, KCl 5 mM, KH2PO4 1.2 mM, CaCl2 2.5 mM, MgSO4 1.2 mM, BSA 0.15 mg/ml, Bacitracine 0.5 mg/ml, pH 7.4) and rehomogenized using the Potter S, 10 strokes at 600 rpm. The protein concentration in the incubation was […]. The radioligand was [^125I]-PYY (100 pM) in a total incubation volume of 200 μl. Following incubation at 25° C. for 2 h, the reaction was stopped by addition of 5 ml ice-cold buffer (Tris-HCl 25 mM, NaCl 120 mM, KCl 5 mM, KH2PO4 1.2 mM, CaCl2 2.5 mM, MgSO4 1.2 mM, pH 7.4) and rapid filtration in a Harvester Brandell Cell using filters (Schleicher & Schuell GF 3362) pretreated for two hours with 0.5% polyethyleneimine. Filters were washed one time with 5 ml ice-cold buffer. The filters were placed into plastic scintilation vials and 5 ml scintilation cocktail Ecoscint H were added. The quantity of radioactivity present was determined in a Wallac Winspectral 1414 counter. Non specific binding was determined in the presence of 1 μM de pNPY. All binding assays were done in triplicate.

Going from `Cc1ccc(NC2CCN(CC(=O)Nc3cnc4ccccc4c3)CC2)c(CO)c1` [Example 5, 2-[4-(2-Hydroxymethyl-4-methyl-phenylamino)-piperidin-1-yl]-N-quinolin-3-yl-acetamide] to `Cc1ccc(NC2CCN(CC(=O)Nc3ccc4ncccc4c3)CC2)c(CO)c1` [Example 7, 2-[4-(2-Hydroxymethyl-4-methyl-phenylamino)-piperidin-1-yl]-N-quinolin-6-yl-acetamide], the inhibition at 1 µM falls from 86.2% to 82.3%.

Going from `Cc1cccc(CO)c1NC1CCN(CC(=O)Nc2cnc3ccccc3c2)CC1` [Example 9, 2-[4-(2-Hydroxymethyl-6-methyl-phenylamino)-piperidin-1-yl]-N-quinolin-3-yl-acetamide] to `Cc1cccc(CO)c1NC1CCN(CC(=O)Nc2ccc3ncccc3c2)CC1` [Example 11, 2-[4-(2-Hydroxymethyl-6-methyl-phenylamino)-piperidin-1-yl]-N-quinolin-6-yl-acetamide], the inhibition at 1 µM falls from 80.4% to 73.9%.

Going from `O=C(CN1CCC(Nc2ccccc2CO)CC1)Nc1ccc(C(=O)c2ccccc2)cc1` [Example 13, N-(4-Benzoyl-phenyl)-2-[4-(2-hydroxymethyl-phenylamino)-piperidin-1-yl]-acetamide] to `Cc1ccc(NC2CCN(CC(=O)Nc3ccc(C(=O)c4ccccc4)cc3)CC2)c(CO)c1` [Example 14, N-(4-Benzoyl-phenyl)-2-[4-(2-hydroxymethyl-4-methyl-phenylamino)-piperidin-1-yl]-acetamide], the inhibition at 1 µM rises from 81.5% to 88.9%.

In the case of `Cc1cccc(CO)c1NC1CCN(CC(=O)Nc2ccc(C(=O)c3ccccc3)cc2)CC1` [Example 15, N-(4-Benzoyl-phenyl)-2-[4-(2-hydroxymethyl-6-methyl-phenylamino)-piperidin-1-yl]-acetamide], the inhibition at 1 µM is reported as 93.2%.

Same assay, conditions: membranes of C6 cells transfected with the rat Y5 receptor; radioligand [125I]-PYY 100 pM; 25° C., 2 h

`CCn1c2ccccc2c2cc(NC(=O)CN3CCC(Nc4c(C)cccc4CO)CC3)ccc21` [Example 1a, N-(9-Ethyl-9H-carbazol-3-yl)-2-[4-(2-hydroxymethyl-6-methyl-phenylamino)-piperidin-yl]acetamide dihydrochloride] and `Cc1cccc(CO)c1NC1CCN(CC(=O)Nc2ccc3c(c2)-c2ccccc2C3O)CC1` (stereo not drawn) [Example 5a, N-(9-Hydroxy-9H-fluoren-3-yl)-2-[4-(2-hydroxymethyl-6-methyl-phenylamino)-piperidin-1-yl]-acetamide] are within 1.5-fold of each other in IC50: 0.05 µM for the first, 0.0401 µM for the second.

Compared with `Cc1ccc(NC2CCN(CC(=O)Nc3ccc4c(c3)-c3ccccc3C4=O)CC2)c(CO)c1` [Example 2a, 2-[4-(2-Hydroxymethyl-4-methyl-phenylamino)-piperidin-1-yl]-N-(9-oxo-9H-fluoren-3-yl)-acetamide], `Cc1cccc(CO)c1NC1CCN(CC(=O)Nc2ccc3c(c2)-c2ccccc2C3=O)CC1` [Example 3a, 2-[4-(2-Hydroxymethyl-6-methyl-phenylamino)-piperidin-1-yl]-N-(9-oxo-9H-fluoren-3-yl)-acetamide] is 2.2-fold lower in IC50: 0.0809 µM for the first, 0.0363 µM for the second.

Test system: not given
Test: not given
Settings: not given

Going from `COC(=O)c1ccccc1NC1CCN(CC(=O)Nc2ccc3c(c2)-c2ccccc2C3=O)CC1.Cl` to `Cc1ccc(NC2CCN(CC(=O)Nc3ccc4c(c3)-c3ccccc3C4=O)CC2)c(CO)c1` [Example 2a, 2-[4-(2-Hydroxymethyl-4-methyl-phenylamino)-piperidin-1-yl]-N-(9-oxo-9H-fluoren-3-yl)-acetamide], the melting point falls from 258 °C to 152 °C.

First: O=C(CN1CCC(Nc2ccccc2CO)CC1)Nc1ccc2c(c1)CCC2=O
Second: Cc1ccc(NC2CCN(CC(=O)Nc3ccccc3)CC2)c(CO)c1 [Example 7a, 2-[4-(2-Hydroxymethyl-4-methyl-phenylamino)-piperidin-1-yl]-N-phenyl-acetamide]
The melting point of the first is higher: 138 to 140 °C for the first, 128 °C for the second.

Going from `Cc1cccc(CO)c1NC1CCN(CC(=O)Nc2ccc3c(c2)-c2ccccc2C3=O)CC1` [Example 3a, 2-[4-(2-Hydroxymethyl-6-methyl-phenylamino)-piperidin-1-yl]-N-(9-oxo-9H-fluoren-3-yl)-acetamide] to `Cc1cccc(CO)c1NC1CCN(CC(=O)Nc2ccc3c(c2)-c2ccccc2C3O)CC1` (stereo not drawn) [Example 5a, N-(9-Hydroxy-9H-fluoren-3-yl)-2-[4-(2-hydroxymethyl-6-methyl-phenylamino)-piperidin-1-yl]-acetamide], the melting point rises from 113 °C to 133 °C.

Compound `Cc1ccc(NC2CCN(CC(=O)Nc3ccc4c(c3)-c3ccccc3C4O)CC2)c(CO)c1` (stereo not drawn) [Example 4a, N-(9-Hydroxy-9H-fluoren-3-yl)-2-[4-(2-hydroxymethyl-4-methyl-phenylamino)-piperidin-1-yl]-acetamide] has a melting point of 124 °C.
